Test results published in US8889688B2, “Piperazines as antimalarial agents” (Actelion Pharmaceuticals Ltd., priority 2011, dated 2014).
Read-outs that look alike come from different tables or passages of the source.

Experiments:
[1] = test system: P. berghei strain GFP-ANKA; assay: In vivo antimalarial efficacy study in infected NMRI mice; details: Plasmodium berghei; female NMRI mice infected with P. berghei GFP-ANKA; single oral dose of 100 mg/kg 24 h after infection; parasitemia 48 h after drug treatment (day 3); read-out: Activity (inhibition of parasitemia) expressed as a percent relative to the control group
Experimental: In Vivo Antimalarial Efficacy Studies
In vivo antimalarial activity is assessed for groups of three female NMRI mice (20-22 g) intravenously infected on day 0 with P. berghei strain GFP-ANKA (0.2 mL heparinized saline suspension containing 2×10^7 parasitized erythrocytes). In control mice, parasitemia typically rises to approximately 40% by day 3 after infection. Compounds are formulated in Tween 80/ethanol (7%/3%) usually at concentrations of 10 mg/mL. Compounds are administered in a volume of 10 mL/kg orally as single doses (1×100 mg/kg, 24 h after infection). 48 h after drug treatment (day 3 post-infection), 1 μl tail blood is taken, resuspended in 1 mL PBS buffer and parasitemia determined with a FACScan (Becton Dickinson) by counting 100′000 red blood cells. Activity is calculated as the difference between the mean value of the control group and treated groups expressed as a percent relative to the control group.

[2] = test system: erythrocytic stages of P. falciparum NF54; assay: Plasmodium falciparum in vitro assay, [3H] hypoxanthine incorporation; format: cell-based; details: Plasmodium falciparum, Erythrocyte, 72 h, P. falciparum NF54 in human red blood cells, 48 h + 24 h incubation
Experimental: In Vitro Antimalarial Activity: Plasmodium falciparum In Vitro Assay In vitro activity against erythrocytic stages of P. falciparum in human red blood cells is determined using a [^3H] hypoxanthine incorporation assay. […] Thereafter, the parasite cultures incubated in screening medium containing washed human red blood cells at 2.5% hematocrit (0.3% parasitemia) are added to the serially diluted compounds and incubated in a humidifying atmosphere at 37° C., 4% CO2, 3% O2, and 93% N2. After 48 h, [^3H] hypoxanthine (0.5 μCi) is added to each well of a plate. The plates are incubated for a further 24 h under the same conditions then harvested with a Betaplate cell harvester (Wallac) and washed with distilled water. The dried filters are inserted into a plastic foil with 10 mL of scintillation fluid, and counted in a Betaplate liquid scintillation counter. IC50 values are calculated from sigmoidal inhibition curves using Microsoft Excel.

[3] = screening medium with Albumax (5 g/L), read-out: IC50 on NF54 (with Albumax)
[4] = screening medium with human serum (50% final concentration), read-out: IC50 on NF54 (with 50% Serum)

With `COC(=O)c1ccc(C=CC(=O)N(Cc2ccc(N3CCN(C(C)=O)CC3)cc2)[C@@H](Cc2ccccc2)C(=O)N2CCN(Cc3ccccc3)CC2)cc1` [Example 5, (S)-4-(2-{[4-(4-Acetyl-piperazin-1-yl)-benzyl]-[1-benzyl-2-(4-benzyl-piperazin-1-yl)-2-oxo-ethyl]-carbamoyl}-vinyl)-benzoic acid methyl ester] the inhibition in vivo at 100 mg/kg [1] was less than 40%, the IC50 [2, 3] was 3.9 nM and the IC50 [2, 4] was 12 nM.

`CC(=O)N1CCN(c2ccc(CN(C(=O)C=Cc3ccc(C(F)(F)F)cc3)[C@@H](Cc3ccccc3)C(=O)N3CCN(Cc4ccccc4)CC3)cc2)CC1` [Example 1, (S)-N-[4-(4-Acetyl-piperazin-1-yl)-benzyl]-N-[1-benzyl-2-(4-benzyl-piperazin-1-yl)-2-oxo-ethyl]-3-(4-trifluoromethyl-phenyl)-acrylamide, reference compound] gave an inhibition in vivo at 100 mg/kg [1] of less than 40%, an IC50 [2, 3] of 5.1 nM and an IC50 [2, 4] of 27.6 nM.

`CC(=O)Nc1ccc(C=CC(=O)N(Cc2ccc(N3CCN(C(C)=O)CC3)cc2)[C@@H](Cc2ccccc2)C(=O)N2CCN(Cc3ccc(C#N)cc3)CC2)cc1` [Example 27, (S)-3-(4-Acetylamino-phenyl)-N-[4-(4-acetyl-piperazin-1-yl)-benzyl]-N-{1-benzyl-2-[4-(4-cyano-benzyl)piperazin-1-yl]-2-oxo-ethyl}-acrylamide] gave an inhibition in vivo at 100 mg/kg [1] of less than 40%, an IC50 [2, 3] of 1.8 nM and an IC50 [2, 4] of 12.9 nM.

With `CC(=O)N1CCN(c2ccc(CN(C(=O)C=Cc3ccc(C(C)C)cc3)[C@@H](Cc3ccccc3)C(=O)N3CCN(Cc4ccc(N(C)C)cc4)CC3)cc2)CC1` [Example 23, (S)-N-[4-(4-Acetyl-piperazin-1-yl)-benzyl]-N-{1-benzyl-2-[4-(4-dimethylamino-benzyl)-piperazin-1-yl]-2-oxo-ethyl}-3-(4-isopropyl-phenyl)-acrylamide] the inhibition in vivo at 100 mg/kg [1] was 99.1%, the IC50 [2, 3] was 1.3 nM and the IC50 [2, 4] was 9.5 nM.

Work on `CCCOc1ccc(C=CC(=O)N(Cc2ccc(N3CCN(C(C)=O)CC3)cc2)[C@@H](Cc2ccccc2)C(=O)N2CCN(Cc3ccc(C#N)cc3)CC2)cc1` [Example 28, (S)-N-[4-(4-Acetyl-piperazin-1-yl)-benzyl]-N-{1-benzyl-2-[4-(4-cyano-benzyl)-piperazin-1-yl]-2-oxo-ethyl}-3-(4-propoxy-phenyl)-acrylamide] yielded an inhibition in vivo at 100 mg/kg [1] of 99.3%, an IC50 [2, 3] of 1.1 nM and an IC50 [2, 4] of 3.6 nM.

`CCOc1ccc(C=CC(=O)N(Cc2ccc(N3CCN(C(C)=O)CC3)cc2)[C@@H](Cc2ccccc2)C(=O)N2CCN(Cc3ccc(N(C)C)cc3)CC2)cc1` [Example 15, (S)-N-[4-(4-Acetyl-piperazin-1-yl)-benzyl]-N-{1-benzyl-2-[4-(4-dimethylamino-benzyl)-piperazin-1-yl]-2-oxo-ethyl}-3-(4-ethoxy-phenyl)-acrylamide] gave an inhibition in vivo at 100 mg/kg [1] of 99%, an IC50 [2, 3] of 1.7 nM and an IC50 [2, 4] of 6.8 nM.

`CCOc1ccc(C=CC(=O)N(Cc2ccc(N3CCN(C(C)=O)CC3)cc2)[C@@H](Cc2ccccc2)C(=O)N2CCN(Cc3ccc(Cl)cc3)CC2)cc1` [Example 35, (S)-N-[4-(4-Acetyl-piperazin-1-yl)-benzyl]-N-{1-benzyl-2-[4-(4-chloro-benzyl)-piperazin-1-yl]-2-oxo-ethyl}-3-(4-ethoxy-phenyl)-acrylamide] gave an inhibition in vivo at 100 mg/kg [1] of 98.7%, an IC50 [2, 3] of 2.9 nM and an IC50 [2, 4] of 9 nM.

`CCOc1ccc(C=CC(=O)N(Cc2ccc(N3CCN(C(C)=O)CC3)cc2)[C@@H](Cc2ccccc2)C(=O)N2CCN(Cc3ccccc3)CC2)cc1` [Example 4, (S)-N-[4-(4-Acetyl-piperazin-1-yl)-benzyl]-N-[1-benzyl-2-(4-benzyl-piperazin-1-yl)-2-oxo-ethyl]-3-(4-ethoxy-phenyl)-acrylamide] showed an inhibition in vivo at 100 mg/kg [1] of 97.4%, an IC50 [2, 3] of 1.9 nM and an IC50 [2, 4] of 10 nM.

In the case of `CC(=O)N1CCN(c2ccc(CN(C(=O)C=Cc3ccc(C(C)(C)C)cc3)[C@@H](Cc3ccccc3)C(=O)N3CCN(Cc4ccccc4)CC3)cc2)CC1` [Example 3, (S)-N-[4-(4-Acetyl-piperazin-1-yl)-benzyl]-N-[1-benzyl-2-(4-benzyl-piperazin-1-yl)-2-oxo-ethyl]-3-(4-tert-butyl-phenyl)-acrylamide], the inhibition in vivo at 100 mg/kg [1] is reported as 98.7%, the IC50 [2, 3] is reported as 1.9 nM and the IC50 [2, 4] is reported as 8.5 nM.

`CC(=O)N1CCN(c2ccc(CN(C(=O)C=Cc3ccc(OC(C)C)cc3)[C@@H](Cc3ccccc3)C(=O)N3CCN(Cc4ccc(Cl)cc4)CC3)cc2)CC1` [Example 39, (S)-N-[4-(4-Acetyl-piperazin-1-yl)-benzyl]-N-{1-benzyl-2-[4-(4-chloro-benzyl)-piperazin-1-yl]-2-oxo-ethyl}-3-(4-isopropoxy-phenyl)-acrylamide] was tested, and the inhibition in vivo at 100 mg/kg [1] was 99%, the IC50 [2, 3] was 2.3 nM and the IC50 [2, 4] was 11 nM.

Work on `CC(=O)N1CCN(c2ccc(CN(C(=O)C=Cc3ccc(S(C)(=O)=O)cc3)[C@@H](Cc3ccccc3)C(=O)N3CCN(Cc4ccc(Cl)cc4)CC3)cc2)CC1` [Example 36, (S)-N-[4-(4-Acetyl-piperazin-1-yl)-benzyl]-N-{1-benzyl-2-[4-(4-chloro-benzyl)-piperazin-1-yl]-2-oxo-ethyl}-3-(4-methanesulfonyl-phenyl)-acrylamide] yielded an inhibition in vivo at 100 mg/kg [1] of 46.8%, an IC50 [2, 3] of 7.8 nM and an IC50 [2, 4] of 28 nM.

For `CCCOc1ccc(C=CC(=O)N(Cc2ccc(N3CCN(C(C)=O)CC3)cc2)[C@@H](Cc2ccccc2)C(=O)N2CCN(Cc3ccc(S(C)(=O)=O)cc3)CC2)cc1` [Example 46, (S)-N-[4-(4-Acetyl-piperazin-1-yl)-benzyl]-N-{1-benzyl-2-[4-(4-(methylsulfonyl)-benzyl)-piperazin-1-yl]-2-oxo-ethyl}-3-(4-propoxyphenyl)-acrylamide], the inhibition in vivo at 100 mg/kg [1] was 98.9%, the IC50 [2, 3] was 0.4 nM and the IC50 [2, 4] was 1.1 nM.

With `CCc1ccc(C=CC(=O)N(Cc2ccc(N3CCN(C(C)=O)CC3)cc2)[C@@H](Cc2ccccc2)C(=O)N2CCN(Cc3ccc(N(C)CCO)cc3)CC2)cc1` [Example 59, (S)-N-[4-(4-Acetyl-piperazin-1-yl)-benzyl]-N-[1-benzyl-2-(4-{4-[(2-hydroxy-ethyl)-methyl-amino]-benzyl}-piperazin-1-yl)-2-oxo-ethyl]-3-(4-ethyl-phenyl)-acrylamide] the inhibition in vivo at 100 mg/kg [1] was 96.5%, the IC50 [2, 3] was 1.6 nM and the IC50 [2, 4] was 3.8 nM.

Molecule `CC(=O)N1CCN(c2ccc(CN(C(=O)C=Cc3ccc(OC(F)F)cc3)[C@@H](Cc3ccccc3)C(=O)N3CCN(Cc4ccc(C#N)cc4)CC3)cc2)CC1` [Example 31, (S)-N-[4-(4-Acetyl-piperazin-1-yl)-benzyl]-N-{1-benzyl-2-[4-(4-cyano-benzyl)-piperazin-1-yl]-2-oxo-ethyl}-3-(4-difluoromethoxy-phenyl)-acrylamide] has an inhibition in vivo at 100 mg/kg [1] of 88.9%, an IC50 [2, 3] of 1.7 nM and an IC50 [2, 4] of 3.8 nM.

`CCc1ccc(C=CC(=O)N(Cc2ccc(N3CCN(C(C)=O)CC3)cc2)[C@@H](Cc2ccccc2)C(=O)N2CCN(Cc3ccc(C#N)cc3)CC2)cc1` [Example 30, (S)-N-[4-(4-Acetyl-piperazin-1-yl)-benzyl]-N-{1-benzyl-2-[4-(4-cyano-benzyl)-piperazin-1-yl]-2-oxo-ethyl}-3-(4-ethyl-phenyl)-acrylamide] was tested, and the inhibition in vivo at 100 mg/kg [1] was 97.7%, the IC50 [2, 3] was 0.9 nM and the IC50 [2, 4] was 5 nM.

`CC(=O)N1CCN(c2ccc(CN(C(=O)C=Cc3ccc(C(C)(C)C)cc3)[C@@H](Cc3ccccc3)C(=O)N3CCN(Cc4ccc(Cl)cc4)CC3)cc2)CC1` [Example 43, (S)-N-[4-(4-Acetyl-piperazin-1-yl)-benzyl]-N-{1-benzyl-2-[4-(4-chloro-benzyl)-piperazin-1-yl]-2-oxo-ethyl}-3-(4-tert-butyl-phenyl)-acrylamide] was tested, and the inhibition in vivo at 100 mg/kg [1] was 98.7%, the IC50 [2, 3] was 1.1 nM and the IC50 [2, 4] was 13.5 nM.

For `CC(=O)N1CCN(c2ccc(CN(C(=O)C=Cc3ccc(C(C)(C)C)cc3)[C@@H](Cc3ccccc3)C(=O)N3CCN(Cc4ccc(N(C)CCO)cc4)CC3)cc2)CC1` [Example 62, (S)-N-[4-(4-Acetyl-piperazin-1-yl)-benzyl]-N-[1-benzyl-2-(4-{4-[(2-hydroxy-ethyl)-methyl-amino]-benzyl}-piperazin-1-yl)-2-oxo-ethyl]-3-(4-tert-butyl-phenyl)-acrylamide], the inhibition in vivo at 100 mg/kg [1] was 99.4%, the IC50 [2, 3] was 0.7 nM and the IC50 [2, 4] was 3.2 nM.

In the case of `CC(=O)N1CCN(c2ccc(CN(C(=O)C=Cc3ccc(OC(C)C)cc3)[C@@H](Cc3ccccc3)C(=O)N3CCN(Cc4ccc(N(C)C)cc4)CC3)cc2)CC1` [Example 19, (S)-N-[4-(4-Acetyl-piperazin-1-yl)-benzyl]-N-{1-benzyl-2-[4-(4-dimethylamino-benzyl)-piperazin-1-yl]-2-oxo-ethyl}-3-(4-isopropoxy-phenyl)-acrylamide], the inhibition in vivo at 100 mg/kg [1] is reported as 99.2%, the IC50 [2, 3] is reported as 2.6 nM and the IC50 [2, 4] is reported as 9.3 nM.
